The subject of one data set is rats. The data set can be described thus: Reproductive toxicology in rats. Format: in vivo, rat. As to conditions: p.o.
In another data set the target is T1, GPR35 (Homo sapiens, UniProt Q9HC97).
T1 construct: purchased Cerep; Chantest; DiscoveRx; Multispan; MDS Pharma Services
The data set can be described thus: Receptor binding profile of VSN16R. The note with it: 10µM VSN16R.

The test system of the next data set is GABAA. The data set can be described thus: Receptor binding profile of VSN16R. Details: species or system human. As to conditions: 10µM VSN16R.
The next data set has as its target T2, 5-HT1A (Homo sapiens, UniProt P08908).
T2 construct: purchased Cerep; Chantest; DiscoveRx; Multispan; MDS Pharma Services
The data set can be described thus: Receptor binding profile of VSN16R. As to conditions: 10µM VSN16R.

The next data set deals with rat mesenteric artery. Description: Methoxamine‐evoked contraction of rat mesenteric artery. Format: cell-based. How it is done:
Vessels were equilibrated and set to a basal tension of 2 to 2.5 mN. The integrity of the endothelium was assessed by pre‐contracting the vessel with 10 μM methoxamine (an α1‐adrenoceptor agonist), followed by relaxation with 10 μM carbachol (a muscarinic acetylcholine receptor agonist); vessels showing relaxations of greater than 90% were designated as endothelium‐intact. When the endothelium was not required, it was removed by rubbing the intima with a human hair; carbachol‐induced relaxation of less than 10% indicated successful removal. After the test for endothelial integrity, vessels were left for 30 min and then pre‐contracted with 10 μM methoxamine. This was followed by construction of a cumulative concentration–relaxation curve to VSN16R (10 nM–1 μM). […] Most experiments were performed in matched vessels; effects of blockers or endothelial removal were compared with the control responses obtained in separate vessels of the same rats. All relaxant responses are expressed as percentage relaxation of the tone induced by methoxamine. Values are given as mean ± SEM. Statistical comparisons of concentration‐dependent responses were made by two‐way ANOVA using Prism 4 (GraphPad Software, Inc, San Diego, CA, USA).

Data set [1] deals with spastic ABH mice with EAE. Description: Spasticity: resistance to hindlimb flexion against a strain gauge.
For the next data set, the target named is T3, GPR23 (Homo sapiens, UniProt Q99677).
T3 construct: purchased Cerep; Chantest; DiscoveRx; Multispan; MDS Pharma Services
The data set can be described thus: Receptor binding profile of VSN16R. The note with it: 10µM VSN16R.

A further data set deals with T4, M2 (Homo sapiens, UniProt P08172).
T4 construct: purchased Cerep; Chantest; DiscoveRx; Multispan; MDS Pharma Services
Description: Receptor binding profile of VSN16R. The note with it: 10µM VSN16R.

A short description of data set [2]: Phase I pharmacokinetics in healthy humans. Format: in vivo, human. How it is done:
The stability of compounds when subjected to hepatic and plasma degradation was assessed in vitro by Inpharmatica, Cambridge, UK. Compounds (1 μM) were incubated with either pooled mouse liver microsomes (0.1 mg protein mL^−1) or pooled mouse plasma at 37°C for 0, 5, 10, 20 and 40 min before termination with acetonitrile containing warfarin as an analytical internal standard. Samples were centrifuged, and the resultant supernatant analysed for parent compound. The mass responses at baseline were taken as the 100% reference values against which the disappearance of the compound was measured. The natural log of the % remaining values was used to generate linear plots of disappearance of the compounds. Half‐life values were calculated from the slope of these plots. Hepatocyte metabolism was assessed by Cyprotex, Macclesfield, and 10 μM VSN16R was incubated with primary mouse, rat, monkey (Macaque) and human hepatocytes for 1 h, and the presence of metabolites was assessed using liquid […] mass spectroscopy. The stability of VSN16R was assessed in vivo by Inpharmatica, Cyprotex and Charles Rivers, Cambridge. Blood (plasma) samples were obtained prior to and 5 min to 24 h after drug administration of 2–5 mg·kg^−1 i.v. or 5 mg·kg^−1 p.o. VSN16R into outbred mice and rats (n = 3 per time point). In addition, plasma, brain and spinal cord samples were obtained from ABH with spastic EAE. Immediately after blood collection, the brain and spinal cord were removed and then stored at −20°C prior to assay. Tissue samples were weighed, homogenized and centrifuged, and the lysates generated. Brain lysates and plasma were assayed by LC–MS methods by Inpharmatica/Charles Rivers, Cambridge, UK. This was also performed using a Waters Xevo TQ or API4000, AB Sciex mass spectrometer using spiked samples as standards. PK Solutions Software (Summit Research Services, Montrose, CO, USA), AB Sciex Analyst software combined with Thermo Fisher Scientific Watson LIMS processing and reporting software or WinNonLin pharmacokinetic or PK solutions 2.0 software (Summit Research Services, Montrose CO, USA) were used to produce PK parameters. Data are expressed as mean ± SEM. The detection limit of VSN16R was 2 ng·mL^−1 in plasma and brain and 14 ng·mL^−1 in spinal cords.

A further data set has as its target T5, monoglycerol lipase (Homo sapiens, UniProt Q99685).
T5 construct: purchased Cerep; Chantest; DiscoveRx; Multispan; MDS Pharma Services
Description: Receptor binding profile of VSN16R. As to conditions: 10µM VSN16R.

A further data set deals with T6, κ (Homo sapiens, UniProt P41145).
T6 construct: purchased Cerep; Chantest; DiscoveRx; Multispan; MDS Pharma Services
The data set can be described thus: Receptor binding profile of VSN16R. As to conditions: 10µM VSN16R.

These results are taken from article PMC5522996, “Big conductance calcium‐activated potassium channel openers control spasticity without sedation” (British Journal of Pharmacology, 2017).

By bioavailability is commonly meant the share of a dose that reaches the circulation, judged against a reference dose that is usually intravenous.

T3 sequence (Q99677 whole entry): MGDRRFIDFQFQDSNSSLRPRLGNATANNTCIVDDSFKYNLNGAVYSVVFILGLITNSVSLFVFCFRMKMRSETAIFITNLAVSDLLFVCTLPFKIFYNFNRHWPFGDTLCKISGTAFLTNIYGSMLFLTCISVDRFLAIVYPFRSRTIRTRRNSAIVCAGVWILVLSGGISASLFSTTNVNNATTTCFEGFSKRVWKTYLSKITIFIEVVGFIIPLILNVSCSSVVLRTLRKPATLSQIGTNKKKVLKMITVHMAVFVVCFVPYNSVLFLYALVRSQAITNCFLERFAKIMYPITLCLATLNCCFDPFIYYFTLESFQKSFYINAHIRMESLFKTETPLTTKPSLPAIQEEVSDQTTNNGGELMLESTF
T4 sequence (P08172 whole entry): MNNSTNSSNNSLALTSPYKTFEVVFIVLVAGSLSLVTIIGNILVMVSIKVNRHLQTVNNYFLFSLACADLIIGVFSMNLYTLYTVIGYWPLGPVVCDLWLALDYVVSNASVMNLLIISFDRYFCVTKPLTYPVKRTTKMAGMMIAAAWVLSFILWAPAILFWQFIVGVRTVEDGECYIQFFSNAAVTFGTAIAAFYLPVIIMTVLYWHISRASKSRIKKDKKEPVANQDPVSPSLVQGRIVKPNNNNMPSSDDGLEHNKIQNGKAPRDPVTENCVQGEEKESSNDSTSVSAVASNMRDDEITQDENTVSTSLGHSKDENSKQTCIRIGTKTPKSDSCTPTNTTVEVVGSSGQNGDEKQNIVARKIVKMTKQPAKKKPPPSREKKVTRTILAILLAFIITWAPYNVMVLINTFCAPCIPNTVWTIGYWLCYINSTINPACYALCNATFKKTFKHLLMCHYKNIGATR
T1 sequence (Q9HC97 whole entry): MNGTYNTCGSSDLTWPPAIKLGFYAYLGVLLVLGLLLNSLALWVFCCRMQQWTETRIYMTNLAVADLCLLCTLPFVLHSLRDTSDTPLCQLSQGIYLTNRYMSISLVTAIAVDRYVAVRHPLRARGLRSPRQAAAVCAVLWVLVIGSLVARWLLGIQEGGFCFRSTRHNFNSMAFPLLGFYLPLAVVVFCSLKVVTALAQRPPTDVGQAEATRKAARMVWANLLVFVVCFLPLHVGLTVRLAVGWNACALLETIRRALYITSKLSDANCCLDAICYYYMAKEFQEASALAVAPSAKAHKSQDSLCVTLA
T2 sequence (P08908 whole entry): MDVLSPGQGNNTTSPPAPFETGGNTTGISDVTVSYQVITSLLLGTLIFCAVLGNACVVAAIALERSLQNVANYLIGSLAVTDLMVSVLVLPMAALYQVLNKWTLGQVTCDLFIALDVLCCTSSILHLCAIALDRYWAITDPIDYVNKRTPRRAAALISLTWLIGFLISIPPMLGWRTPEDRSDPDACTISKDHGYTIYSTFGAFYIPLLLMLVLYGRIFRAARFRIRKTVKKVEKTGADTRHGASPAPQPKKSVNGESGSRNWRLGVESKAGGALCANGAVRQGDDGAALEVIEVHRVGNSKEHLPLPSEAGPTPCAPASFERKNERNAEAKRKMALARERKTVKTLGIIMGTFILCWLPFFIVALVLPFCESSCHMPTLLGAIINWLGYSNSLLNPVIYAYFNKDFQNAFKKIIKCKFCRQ
T6 sequence (P41145 whole entry): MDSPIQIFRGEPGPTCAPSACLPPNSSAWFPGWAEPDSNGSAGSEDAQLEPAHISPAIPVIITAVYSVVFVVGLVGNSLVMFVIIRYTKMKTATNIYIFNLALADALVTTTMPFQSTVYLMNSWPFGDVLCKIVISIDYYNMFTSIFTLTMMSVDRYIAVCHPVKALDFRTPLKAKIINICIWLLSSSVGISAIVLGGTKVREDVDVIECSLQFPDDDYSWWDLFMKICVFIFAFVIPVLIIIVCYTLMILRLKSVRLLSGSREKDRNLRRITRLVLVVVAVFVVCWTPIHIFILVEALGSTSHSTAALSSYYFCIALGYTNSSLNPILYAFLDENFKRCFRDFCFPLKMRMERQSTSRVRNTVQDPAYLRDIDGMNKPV
T5 sequence (Q99685 whole entry): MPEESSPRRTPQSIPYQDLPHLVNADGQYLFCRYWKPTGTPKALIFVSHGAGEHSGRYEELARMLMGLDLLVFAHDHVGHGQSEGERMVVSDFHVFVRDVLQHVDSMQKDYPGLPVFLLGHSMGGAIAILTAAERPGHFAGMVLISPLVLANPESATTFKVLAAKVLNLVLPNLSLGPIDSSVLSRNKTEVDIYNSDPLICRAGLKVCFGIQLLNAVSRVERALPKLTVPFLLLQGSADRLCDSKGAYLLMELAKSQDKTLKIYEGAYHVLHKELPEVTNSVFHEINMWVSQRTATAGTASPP

For `C[C@H](CO)NC(=O)c1cccc(/C=C\CCCC(=O)N(C)C)c1` [VSN16R], the “Reproductive toxicology safe level” value with rats was 1000 mg·kg^−1. For the same compound, the Activity result at GPR35, with GABAA, on 5-HT1A, on GPR23, at M2 and at monoglycerol lipase was “Negligible Activity” throughout. The Activity result at κ is on record as “Negligible Activity”. The “Relaxation in the presence of extracellular KCl” value with rat mesenteric artery (60 mM KCl) is “produced no relaxation”. In addition, in the data set on rat mesenteric artery (endothelium intact vs denuded), the Vasorelaxation result was “significant vasorelaxation in an endothelium‐dependent manner”. Further, the Inhibition of spasticity entry in data set [1] (0.5 mg·kg^−1 p.o.) is “failed to produce rapid muscular relaxation and inhibition of spasticity”; in [1] (1 mg·kg^−1 p.o.), “significant therapeutic activity was evident within 10 min”; in data set [1] (5 mg·kg^−1 i.v.) it was “slightly more active than VSN16S”; in data set [1] (5 mg·kg^−1 p.o.), “significant therapeutic activity was evident within 10 min”. The “Mean group score, resistance to flexion (±SD), one mean per animal” value in data set [1] (5 mg·kg^−1 p.o., 30 min) came out at 0.224 ± 0.067 N; in data set [1] (5 mg·kg^−1 p.o., 60 min), 0.214 ± 0.071 N. In [1] (40 mg·kg^−1 p.o. for 7 days), the “Therapeutic effect after repeated daily administration” value is “therapeutic effect was sustained”. For the same compound, the “Drop of resistance to flexion from baseline” value in [1] (40 mg·kg^−1 p.o., visibly spastic animals) came out at 17.8 ± 5.3%. The “Resistance to flexion force” value in data set [1] (2 weeks after cessation of weekly treatment, mean ± SEM) amounted to 0.157 ± 0.045 N. For the same compound, the “Duration of inhibition of spasticity” value in data set [1] (single dose of 40 mg·kg^−1 p.o.) is given as “over 6 h”. The “Effect of feeding on pharmacokinetics” value in data set [2] (200 mg p.o., fed within 0.5 h of dosing) was “delayed the time of the Cmax (Tmax) and reduced Cmax”. In data set [2] (male, human, plasma, oral, twice daily dosing of VSN16R, read-out: Steady‐state plasma levels), the concentration at 1 week is greater than 100 nM. In [2] (male, human, plasma, po, 25 mg p.o.), this compound came in with a bioavailability of 100%. Moreover, in [2] (over the dose range studied, 25–800 mg), the Terminal elimination fell in the range of 3.4 to 4.9 h.
